Some results are limits rather than exact numbers.

This is an account of results in patent US8410112B2, “Compounds useful as inhibitors of ATR kinase” (Vertex Pharmaceuticals Incorporated, priority 2008, dated 2013).

T1 sequence (Q13535 whole entry): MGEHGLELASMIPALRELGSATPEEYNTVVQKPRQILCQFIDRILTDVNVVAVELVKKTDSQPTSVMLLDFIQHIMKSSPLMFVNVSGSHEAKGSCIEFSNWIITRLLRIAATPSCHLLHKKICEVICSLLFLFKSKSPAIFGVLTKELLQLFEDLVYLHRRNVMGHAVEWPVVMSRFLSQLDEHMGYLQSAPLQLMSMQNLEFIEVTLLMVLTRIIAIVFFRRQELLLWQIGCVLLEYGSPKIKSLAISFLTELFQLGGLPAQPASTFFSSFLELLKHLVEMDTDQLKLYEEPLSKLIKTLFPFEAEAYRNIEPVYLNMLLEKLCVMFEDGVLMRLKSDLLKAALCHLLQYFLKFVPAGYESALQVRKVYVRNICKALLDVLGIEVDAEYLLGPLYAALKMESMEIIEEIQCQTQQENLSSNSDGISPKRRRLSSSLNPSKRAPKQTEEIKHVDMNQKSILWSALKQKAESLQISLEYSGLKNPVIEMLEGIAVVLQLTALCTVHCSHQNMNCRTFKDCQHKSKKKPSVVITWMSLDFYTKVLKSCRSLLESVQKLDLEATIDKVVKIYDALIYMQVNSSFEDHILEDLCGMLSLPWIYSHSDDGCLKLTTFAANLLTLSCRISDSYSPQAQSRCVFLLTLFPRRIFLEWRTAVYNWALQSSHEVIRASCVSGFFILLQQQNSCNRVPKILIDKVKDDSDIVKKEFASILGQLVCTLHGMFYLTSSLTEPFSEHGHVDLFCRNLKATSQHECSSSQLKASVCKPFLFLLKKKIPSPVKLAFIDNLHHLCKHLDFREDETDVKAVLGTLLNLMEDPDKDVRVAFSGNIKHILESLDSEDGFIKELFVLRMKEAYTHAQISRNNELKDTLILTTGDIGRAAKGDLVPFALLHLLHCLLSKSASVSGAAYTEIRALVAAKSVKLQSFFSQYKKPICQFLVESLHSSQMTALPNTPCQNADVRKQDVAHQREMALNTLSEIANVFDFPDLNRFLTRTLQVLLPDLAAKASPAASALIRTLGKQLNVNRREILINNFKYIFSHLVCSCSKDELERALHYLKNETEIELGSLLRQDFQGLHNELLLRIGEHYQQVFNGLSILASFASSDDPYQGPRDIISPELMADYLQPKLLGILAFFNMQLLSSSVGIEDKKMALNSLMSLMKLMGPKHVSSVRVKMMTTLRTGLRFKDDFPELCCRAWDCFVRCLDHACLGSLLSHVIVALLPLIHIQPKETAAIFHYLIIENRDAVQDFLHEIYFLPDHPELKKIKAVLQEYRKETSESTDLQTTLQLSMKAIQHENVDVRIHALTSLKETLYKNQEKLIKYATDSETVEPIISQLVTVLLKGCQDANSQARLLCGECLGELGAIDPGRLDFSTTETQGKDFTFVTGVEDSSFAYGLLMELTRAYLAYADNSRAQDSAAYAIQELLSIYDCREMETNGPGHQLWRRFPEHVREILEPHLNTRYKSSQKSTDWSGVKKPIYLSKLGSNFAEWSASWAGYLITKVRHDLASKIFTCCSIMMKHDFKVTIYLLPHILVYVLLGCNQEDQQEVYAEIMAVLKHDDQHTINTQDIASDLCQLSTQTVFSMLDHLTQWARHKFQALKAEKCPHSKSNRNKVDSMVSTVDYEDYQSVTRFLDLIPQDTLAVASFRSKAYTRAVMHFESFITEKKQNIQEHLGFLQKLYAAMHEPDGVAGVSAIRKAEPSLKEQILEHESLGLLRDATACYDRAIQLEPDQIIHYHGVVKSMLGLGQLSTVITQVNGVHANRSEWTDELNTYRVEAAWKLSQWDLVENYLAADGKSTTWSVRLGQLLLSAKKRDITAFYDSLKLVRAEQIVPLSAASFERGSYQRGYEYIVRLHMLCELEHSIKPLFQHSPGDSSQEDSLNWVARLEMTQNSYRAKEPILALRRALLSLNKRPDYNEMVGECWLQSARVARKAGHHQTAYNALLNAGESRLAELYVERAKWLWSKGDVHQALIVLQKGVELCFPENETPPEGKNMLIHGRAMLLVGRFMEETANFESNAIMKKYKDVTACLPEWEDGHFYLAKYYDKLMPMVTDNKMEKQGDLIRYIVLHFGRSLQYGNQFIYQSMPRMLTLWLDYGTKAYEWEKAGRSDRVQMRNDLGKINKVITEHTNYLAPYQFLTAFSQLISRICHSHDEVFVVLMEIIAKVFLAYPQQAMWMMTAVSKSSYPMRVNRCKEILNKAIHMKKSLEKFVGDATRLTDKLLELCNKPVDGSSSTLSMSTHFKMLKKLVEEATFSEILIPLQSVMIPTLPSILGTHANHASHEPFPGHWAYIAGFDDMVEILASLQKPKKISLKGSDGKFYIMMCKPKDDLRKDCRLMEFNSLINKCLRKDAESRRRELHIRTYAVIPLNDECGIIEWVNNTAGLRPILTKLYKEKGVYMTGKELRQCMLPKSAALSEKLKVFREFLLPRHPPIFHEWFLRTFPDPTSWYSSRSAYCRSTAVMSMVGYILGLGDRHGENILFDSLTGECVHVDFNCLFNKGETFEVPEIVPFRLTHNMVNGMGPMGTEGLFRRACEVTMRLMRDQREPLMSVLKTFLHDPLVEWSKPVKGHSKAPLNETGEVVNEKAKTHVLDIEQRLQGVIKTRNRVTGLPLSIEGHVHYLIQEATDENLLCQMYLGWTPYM

The test has as its target T1, full-length ATR (Homo sapiens, UniProt Q13535).
T1 construct: in the presence of 5 nM full-length ATR
Description: ATR Inhibition Assay (radioactive-phosphate incorporation). Type of test: biochemical. The note with it: Ki(app); 5 nM full-length ATR, 10 μM ATP, 800 μM target peptide, 25° C. Summed up:
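After a 10-min pre-incubation of compound with 5 nM enzyme at 25 °C, ATP was added to start the reaction (final 10 μM [γ-33P]ATP, 800 μM peptide; Tris/HCl pH 7.5, MgCl2, DTT), which ran 24 h. Incorporated 33P was captured on phosphocellulose filters, and Ki(app) was fitted by non-linear regression.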
For `Nc1ncc(C2=CCN(c3nccs3)CC2)nc1-c1nc2ccccc2[nH]1` [Compound I-164, 3-(1H-benzo[d]imidazol-2-yl)-5-(1-(thiazol-2-yl)-1,2,3,6-tetrahydropyridin-4-yl)pyrazin-2-amine], the Ki was under 100 nM.

For `Nc1ncc(C2=CCN(C(=O)c3ccccn3)CC2)nc1-c1nnc(-c2ccccc2)o1` [Compound I-132, (4-(5-amino-6-(5-phenyl-1,3,4-oxadiazol-2-yl)pyrazin-2-yl)-5,6-dihydropyridin-1(2H)-yl)(pyridin-2-yl)methanone], the Ki was under 100 nM.

As to `Nc1ncc(N2CCN(C(=O)C3CCC3)CC2)nc1-c1nnc(-c2ccccc2)o1` [Compound I-189, (4-(5-amino-6-(5-phenyl-1,3,4-oxadiazol-2-yl)pyrazin-2-yl)piperazin-1-yl)(cyclobutyl)methanone], the Ki fell in the range of 100 to 1000 nM.

In the case of `CCS(=O)(=O)NC1CC[C@H]2CN(c3cnc(N)c(-c4nnc(-c5ccc(CNC)cc5)o4)n3)C[C@@H]12` (stereo partly drawn) [Compound I-354, N-((3aS,6aR)-2-(5-Amino-6-(5-(4-((methylamino)methyl)phenyl)-1,3,4-oxadiazol-2-yl)pyrazin-2-yl)octahydrocyclopenta[c]pyrrol-4-yl)ethanesulfonamide], the Ki lay within 100 to 1000 nM.

Take `Nc1ncc(N2CCN(C(=O)c3cccnc3)CC2)nc1-c1nnc(-c2ccccc2)o1` [Compound I-183, (4-(5-amino-6-(5-phenyl-1,3,4-oxadiazol-2-yl)pyrazin-2-yl)piperazin-1-yl)(pyridin-3-yl)methanone]: the Ki was in the range of 100 to 1000 nM.

In the case of `CS(=O)(=O)N1CCN(c2cnc(N)c(C(=O)Nc3ccccn3)n2)CC1` [Compound I-219, 3-amino-6-(4-(methylsulfonyl)piperazin-1-yl)-N-(pyridin-2-yl)pyrazine-2-carboxamide], the Ki was 100 to 1000 nM.

As for `COCCOC(=O)N1CCN(c2cnc(N)c(-c3nc4ccccc4[nH]3)n2)CC1` [Compound I-266, 2-methoxyethyl 4-(5-amino-6-(1H-benzo[d]imidazol-2-yl)pyrazin-2-yl)piperazine-1-carboxylate], the Ki fell in the range of 1000 to 10000 nM.

Turning to `Nc1ncc(C2=CCN(S(=O)(=O)C3CC3)CC2)nc1-c1nnc(-c2ccccc2)o1` [Compound I-122, 5-(1-(cyclopropylsulfonyl)-1,2,3,6-tetrahydropyridin-4-yl)-3-(5-phenyl-1,3,4-oxadiazol-2-yl)pyrazin-2-amine], the Ki is under 100 nM.

For `CNCc1ccc(-c2nnc(-c3nc(N4Cc5ccccc5C4)cnc3N)o2)cc1` [Compound I-321, 5-Isoindolin-2-yl-3-[5-[4-(methylaminomethyl)phenyl]-1,3,4-oxadiazol-2-yl]pyrazin-2-amine], the Ki was 1000 to 10000 nM.

As to `CN(C)C(=O)N1CC=C(c2cnc(N)c(-c3nnc(-c4ccccc4)o3)n2)CC1` [Compound I-220, 4-(5-amino-6-(5-phenyl-1,3,4-oxadiazol-2-yl)pyrazin-2-yl)-N,N-dimethyl-5,6-dihydropyridine-1(2H)-carboxamide], the Ki was under 100 nM.

As to `CN1CCN(C(=O)N2CC=C(c3cnc(N)c(-c4nc5ccccc5[nH]4)n3)CC2)CC1` [Compound I-161, (4-(5-amino-6-(1H-benzo[d]imidazol-2-yl)pyrazin-2-yl)-5,6-dihydropyridin-1(2H)-yl)(4-methylpiperazin-1-yl)methanone], the Ki lay within 100 to 1000 nM.

As to `CCC(CC)C(=O)N[C@H]1CCN(c2cnc(N)c(-c3nc4ccccc4[nH]3)n2)C1` [Compound I-211, (S)-N-(1-(5-amino-6-(1H-benzo[d]imidazol-2-yl)pyrazin-2-yl)pyrrolidin-3-yl)-2-ethylbutanamide], the Ki was in the range of 1000 to 10000 nM.

In the case of `Nc1ncc(N2CCN(C(=O)N3CCCCC3)CC2)nc1C(=O)Nc1ccccn1` [Compound I-247, 3-amino-6-(4-(piperidine-1-carbonyl)piperazin-1-yl)-N-(pyridin-2-yl)pyrazine-2-carboxamide], the Ki fell in the range of 1000 to 10000 nM.

Consider `Cc1ccc2nc(-c3nc(N4CCN(c5ccccc5C#N)CC4)cnc3N)[nH]c2c1` [Compound I-50, 2-(4-(5-amino-6-(6-methyl-1H-benzo[d]imidazol-2-yl)pyrazin-2-yl)piperazin-1-yl)benzonitrile], for which the Ki is 1000 to 10000 nM.

In the case of `CC(=O)N1CCN(c2cnc(N)c(-c3nnc(-c4ccccc4)o3)n2)CC1` [Compound I-180, 1-(4-(5-amino-6-(5-phenyl-1,3,4-oxadiazol-2-yl)pyrazin-2-yl)piperazin-1-yl)ethanone], the Ki was 100 to 1000 nM.

With `COCC(=O)N1CC=C(c2cnc(N)c(-c3nnc(-c4ccccc4)o3)n2)CC1` [Compound I-130, 1-(4-(5-amino-6-(5-phenyl-1,3,4-oxadiazol-2-yl)pyrazin-2-yl)-5,6-dihydropyridin-1(2H)-yl)-2-methoxyethanone], the Ki is under 100 nM.

Consider `Nc1ncc(N2CCN(C(=O)OCc3ccccc3)CC2)nc1-c1nnc(-c2ccccc2)o1` [Compound I-255, benzyl 4-(5-amino-6-(5-phenyl-1,3,4-oxadiazol-2-yl)pyrazin-2-yl)piperazine-1-carboxylate], for which the Ki lay within 1000 to 10000 nM.

As to `Cc1ccc2nc(-c3nc(N4CCC(N(C)C)CC4)cnc3N)[nH]c2c1` [Compound I-49, 5-(4-(dimethylamino)piperidin-1-yl)-3-(6-methyl-1H-benzo[d]imidazol-2-yl)pyrazin-2-amine], the Ki was in the range of 1000 to 10000 nM.

As for `CNC(=O)[C@H]1CCN(c2cnc(N)c(-c3nc4ccc(C)cc4[nH]3)n2)C1` [Compound I-70, (S)-1-(5-amino-6-(6-methyl-1H-benzo[d]imidazol-2-yl)pyrazin-2-yl)-N-methylpyrrolidine-3-carboxamide], the Ki is 1000 to 10000 nM.

On to `Cc1ccc2nc(-c3nc(N4CCC(CO)CC4)cnc3N)[nH]c2c1` [Compound I-2, (1-(5-amino-6-(6-methyl-1H-benzo[d]imidazol-2-yl)pyrazin-2-yl)piperidin-4-yl)methanol], for which the Ki fell in the range of 1000 to 10000 nM.

Take `CCS(=O)(=O)N1CCN(c2cnc(N)c(-c3cc4ccccc4s3)n2)CC1` [Compound I-59, 3-(benzo[b]thiophen-2-yl)-5-(4-(ethylsulfonyl)piperazin-1-yl)pyrazin-2-amine]: the Ki fell in the range of 100 to 1000 nM.

For `Cc1ccc2nc(-c3nc(N4CCn5cnnc5C4)cnc3N)[nH]c2c1` [Compound I-281, 5-(5,6-dihydro-[1,2,4]triazolo[4,3-a]pyrazin-7(8H)-yl)-3-(6-methyl-1H-benzo[d]imidazol-2-yl)pyrazin-2-amine], the Ki was in the range of 1000 to 10000 nM.

For `CCS(=O)(=O)N1CCN(c2cnc(N)c(-c3cc(-c4ccccc4)no3)n2)CC1` [Compound I-162, 5-(4-(ethylsulfonyl)piperazin-1-yl)-3-(3-phenylisoxazol-5-yl)pyrazin-2-amine], the Ki lay in the range of 100 to 1000 nM.

As to `Nc1ncc(C2=CCN(S(=O)(=O)c3cccnc3)CC2)nc1-c1nnc(-c2ccccc2)o1` [Compound I-222, 3-(5-phenyl-1,3,4-oxadiazol-2-yl)-5-(1-(pyridin-3-ylsulfonyl)-1,2,3,6-tetrahydropyridin-4-yl)pyrazin-2-amine], the Ki is under 100 nM.

`CNCc1ccc(-c2nnc(-c3nc(N4CCC(c5ccccc5)C4)cnc3N)o2)cc1` (stereo not shown) [Compound I-316, 3-[5-[4-(Methylaminomethyl)phenyl]-1,3,4-oxadiazol-2-yl]-5-(3-phenylpyrrolidin-1-yl)pyrazin-2-amine]: the Ki was under 100 nM.
